Test results published in publication PMC10799085, “A miniaturized mode-of-action profiling platform enables high throughput characterization of the molecular and cellular dynamics of EZH2 inhibition” (Scientific Reports, 2024).
pKd, pKi: −log10 of the molar value. Where two headings read alike, the source gives them in different places.

Key:
Format in all cases: binding
[1] = target: T1, PRC2/EZH2+/+ (Homo sapiens, UniProt Q15910); test: Equilibrium probe competition assay (ePCA), TR-FRET
T1 construct: purchased Active Motif

[2] = target: T1, PRC2/EZH2+/+; test: Kinetic probe competition assay (kPCA), TR-FRET
Method: (§1) Biotinylated PRC2 complexes and the fluorescent probe used in TR-FRET assays were generated as described in the supplementary methods section.
For measurements at 25, 30 and 37 °C, the temperature control functionality of the instrument was used.
TR-FRET kPCA traces were exported via Microsoft Excel to GraphPad Prism, where non-specific signals were subtracted and kinetic association competition traces were fitted to the Motulsky–Mahan model “kinetics of competitive binding” to obtain kon (k3), koff (k4) and KD parameters.

[3] = target: T2, PRC2/EZH2Y641N (Homo sapiens, UniProt Q15910, Y641N); test: Kinetic probe competition assay (kPCA), TR-FRET; settings: EZH2Y641N (+ H3K27me3)
T2 construct: Synthetic cDNA encoding N-terminal 6His-tagged full length EZH2^Y641N; 6His (N); made in house; host or cells: Sf9 insect cells (baculovirus co-infection)
Text: as §1

## Cc1cc(C)c(CN2CCc3c(Cl)cc(-c4c(C)noc4C)c(Cl)c3C2=O)c(=O)[nH]1 [Compound 14]
[1]; EZH2+/+ (+ H3K27me3)
  Ligand Efficiency: 1.6
[1]; EZH2+/+ (+ H3K27me3), sheet ePCA&kPCA RT, read-out: Equilibrium Ki
  pKi: 9.04
[1]; EZH2+/+ (- H3K27me3)
  Ligand Efficiency: 1.5
[1]; EZH2+/+ (- H3K27me3), 5 °C, read-out: Ki (Equilibrium)
  pKi: 8.96
[1]; EZH2+/+ (- H3K27me3), 15 °C, read-out: Ki (Equilibrium)
  pKi: 9.09
[1]; EZH2+/+ (- H3K27me3), 30 °C, read-out: Ki (Equilibrium)
  pKi: 8.71
[1]; EZH2+/+ (- H3K27me3), 37 °C, read-out: Ki (Equilibrium)
  pKi: 8.64
[1]; EZH2+/+ (- H3K27me3), sheet ePCA&kPCA RT, read-out: Equilibrium Ki
  pKi: 8.83
[2]; EZH2+/+ (+ H3K27me3)
  Kinetic Efficiency: 3.61E-02
  Calculated RT: 0.29 h
[2]; EZH2+/+ (+ H3K27me3), sheet ePCA&kPCA RT, read-out: Kinetic Kd
  pKd: 9.52
[2]; EZH2+/+ (+ H3K27me3), sheet ePCA&kPCA RT, read-out: Kinetic koff
  koff: 0.000323 s⁻¹
[2]; EZH2+/+ (+ H3K27me3), sheet ePCA&kPCA RT, read-out: Kinetic kon
  kon: 1.06e+06 M⁻¹ s⁻¹
[2]; EZH2+/+ (- H3K27me3)
  Kinetic Efficiency: 2.67E-02
  Calculated RT: 0.21 h
[2]; EZH2+/+ (- H3K27me3), 5 °C
  RT (Calculated): 2.28 h
[2]; EZH2+/+ (- H3K27me3), 5 °C, read-out: koff (Kinetic)
  koff: 0.000251 s⁻¹
[2]; EZH2+/+ (- H3K27me3), 5 °C, read-out: koff calc (Calculated)
  koff: 0.000122 s⁻¹
[2]; EZH2+/+ (- H3K27me3), 5 °C, read-out: kon (Kinetic)
  kon: 111000 M⁻¹ s⁻¹
[2]; EZH2+/+ (- H3K27me3), 15 °C
  RT (Calculated): 0.613 h
[2]; EZH2+/+ (- H3K27me3), 15 °C, read-out: Kd (Kinetic)
  pKd: 9.42
[2]; EZH2+/+ (- H3K27me3), 15 °C, read-out: koff (Kinetic)
  koff: 0.000211 s⁻¹
[2]; EZH2+/+ (- H3K27me3), 15 °C, read-out: kon (Kinetic)
  kon: 559000 M⁻¹ s⁻¹
[2]; EZH2+/+ (- H3K27me3), 30 °C
  RT (Calculated): 0.244 h
[2]; EZH2+/+ (- H3K27me3), 30 °C, read-out: Kd (Kinetic)
  pKd: 8.28
[2]; EZH2+/+ (- H3K27me3), 30 °C, read-out: koff (Kinetic)
  koff: 0.00307 s⁻¹
[2]; EZH2+/+ (- H3K27me3), 30 °C, read-out: koff calc (Calculated)
  koff: 0.00114 s⁻¹
[2]; EZH2+/+ (- H3K27me3), 30 °C, read-out: kon (Kinetic)
  kon: 582000 M⁻¹ s⁻¹
[2]; EZH2+/+ (- H3K27me3), 37 °C
  RT (Calculated): 0.14 h
[2]; EZH2+/+ (- H3K27me3), 37 °C, read-out: Kd (Kinetic)
  pKd: 8.62
[2]; EZH2+/+ (- H3K27me3), 37 °C, read-out: koff (Kinetic)
  koff: 0.00199 s⁻¹
[2]; EZH2+/+ (- H3K27me3), 37 °C, read-out: koff calc (Calculated)
  koff: 0.00194 s⁻¹
[2]; EZH2+/+ (- H3K27me3), 37 °C, read-out: kon (Kinetic)
  kon: 845000 M⁻¹ s⁻¹
[2]; EZH2+/+ (- H3K27me3), sheet ePCA&kPCA RT, read-out: Kinetic Kd
  pKd: 8.64
[2]; EZH2+/+ (- H3K27me3), sheet ePCA&kPCA RT, read-out: Kinetic koff
  koff: 0.00201 s⁻¹
[2]; EZH2+/+ (- H3K27me3), sheet ePCA&kPCA RT, read-out: Kinetic kon
  kon: 883000 M⁻¹ s⁻¹
[3]
  Kinetic Efficiency: 2.02E-02
[3]; RT sheet
  koff: 0.000921 s⁻¹
  kon: 1.28e+06 M⁻¹ s⁻¹
[3]; calculated
  Calculated RT: 0.16 h
